# Data reported in paper PMC3217850, “BACE-1 inhibition prevents the γ-secretase inhibitor evoked Aβ rise in human neuroblastoma SH-SY5Y cells” (Journal of Biomedical Science, 2011).
# pIC50: −log10 of the molar value.
# Assays:
# [1] = test system: SH-SY5Y APPswe cells; assay: Aβ40 secretion from SH-SY5Y APPswe cells, ELISA of culture medium; type: cell-based, human; conditions: for pIC50: Homo sapiens, 24 h
# Method: (§1) The human neuroblastoma cell line SH-SY5Y was purchased from European Collection of Cell Cultures (ECACC). Cells were grown in DMEM/Ham's F-12 (PAA), supplemented with 1% non-essential amino acids (PAA) and 10% Fetal Bovine Serum (PAA). Cells were maintained at 37°C in a humidified atmosphere containing 5% CO2.
# (§2) SH-SY5Y cells were stably transfected with plasmids carrying human APPwt or APPswe gene. APP gene was purchased from Geneservice Ltd (clone sequence BC065529; clone MGC75167) and the APPswe mutation was generated using a QuikChange® Site-Directed Mutagenesis Kit (Stratagene). APPwt and APPswe genes were cloned into a mammalian expression vector pcDNA3.1 and the expression was under the control of CMV promotor. The cells were plated at the density of 6.25 × 10^4 cells/cm^2 in 6-well culture dishes (Sarstedt) and each well was transfected with 4 μg plasmid DNA. Lipofectamine™2000 (InVitrogen) was used as a transfection reagent according to manufacturer's instructions. The transfected cells were selected with 400 μg/ml G418 (PAA).
# (§3) Cells were plated at a density of 6.25 × 10^4 cells/cm^2 in 96-well cell culture plates (TRP) for Aβ measurements with ELISA or in 6-well culture dishes (Sarstedt) for Western blot. The day after the plating of the cells, the cultures were treated with various concentrations of γ-secretase inhibitor LY450139 or the BACE inhibitor for 24 hours. Stock solutions of inhibitors were prepared in dimethyl-sulfoxide (DMSO). All cultures including the control cells received equal amounts of DMSO, the final concentration being 0.1%. All the results were from two to three separate experiments and the data presented as means ± SEM.
# (§4) The secreted Aβ40 and Aβ42 peptides in cell culture media were measured using human amyloid β40 or β42 ELISA kits from Millipore. The absorbance was measured at 450 nm by Microplate reader (Molecular Devices). Data from inhibitor-treated cell cultures was expressed as a percent of untreated controls and the inhibition curves were analysed by non-linear regression using Graph Pad Prism.
# [2] = test system: Aβ; design: method as in PMID 19360898; conditions: healthy volunteers ref 3; cited from earlier work
# [3] = test system: SH-SY5Y APPwt cells; assay: Aβ42 secretion from SH-SY5Y APPwt cells, ELISA of culture medium; type: cell-based, human
# Method: as §1
# as §2, with “The transfected cells were selected with 400 μg/ml G418 (PAA).” left out
# as §4
# [4] = test system: SH-SY5Y APPwt cells; assay: Western blot (6E10 antibody) of APP substrate in cell lysates; type: cell-based, human; conditions: 3, 30 or 300 nM LY450139, 24 h
# Method: as §3
# SH-SY5Y cells were lysed in buffer containing 50 mM Tris-HCl pH 8.0, 150 mM NaCl, 1% Triton X-100, 1 mM EDTA, 1 mM Na3VO4 and 1 complete protease inhibitor cocktail tablet (Roche Diagnostics)/10 ml buffer. The cells were incubated with lysis buffer for 10 minutes on ice before scraping the cells from the dishes. Cell lysates were centrifuged at 14 000 rpm for 15 minutes. The protein content in the supernatants was measured using Pierce® 660 nm Protein Assay kit. Samples, containing 20 μg protein, were resolved in 7% NuPAGE®Tris-Acetate gels (InVitrogen) using Tris-Acetate SDS running buffer (InVitrogen). […] Average density of the bands was measured in ChemiDoc™XRS (Bio-Rad) by using Quantity One software.
# [5] = test system: SH-SY5Y APPwt cells; assay: Aβ40 secretion from SH-SY5Y APPwt cells, ELISA of culture medium; type: cell-based, human; conditions: for pIC50: Homo sapiens, 24 h
# Method: as §1, §2, §3, §4
# [6] = test system: AD patients; design: method as in earlier work; conditions: phase III, AD patients ref 14; cited from earlier work
# [7] = test system: SH-SY5Y APPswe cells; assay: Aβ42 secretion from SH-SY5Y APPswe cells, ELISA of culture medium; type: cell-based, human; conditions: 3 nM LY450139, SH-SY5Y APPswe
# Method: as §1
# as §2, with “The transfected cells were selected with 400 μg/ml G418 (PAA).” left out
# as §4
# [8] = test system: Aβ; design: method as in PMID 20363853; conditions: preclinically ref 13; cited from earlier work
structure (smiles),measurement,setting,value
"CC(C)[C@H](O)C(=O)N[C@@H](C)C(=O)N[C@@H]1C(=O)N(C)CCc2ccccc21 [LY450139, (N)-((S)-2-hydroxy-3-methyl-butyryl)-1-(L-alaninyl)-(S)-amino-3-methyl-2,3,4,5-tetrahydro-1H-3-benzazepin-2-one dihydrate]",effect on Aβ40 secretion per se,"[1]; 3 nM LY450139, SH-SY5Y APPswe",does not affect Aβ40-secretion per se
same,remaining Aβ40 secretion,"[1]; 30 nM LY450139, SH-SY5Y APPswe",20-30%
same,pIC50,"[1]; SH-SY5Y APPswe, monophasic",7.74
same,Aβ40 levels with 3 nM LY450139 in second 24 h,"[1]; after 300 nM LY450139 for first 24 h, SH-SY5Y APPswe",did not lead to increased Aβ40 levels
same,effect on Aβ levels in the cerebrospinal fluid,[2],lower Aβ levels
same,secreted Aβ42 levels increase compared to controls,"[3]; 3 nM LY450139, SH-SY5Y APPwt",70%
same,Aβ42 secretion after washout,"[3]; 300 nM LY450139 24 h, then fresh medium 24 h, SH-SY5Y APPwt",returned to control levels
same,"substrate (APP bands, 6E10) level",[4],accumulation of substrate
same,Aβ40 levels increase above baseline,"[5]; 3 nM LY450139, 24 h, SH-SY5Y APPwt",60%
same,effect on basal Aβ40 levels,"[5]; 30 nM LY450139 per se, SH-SY5Y APPwt",does not affect basal Aβ40 levels
same,reduction of Aβ40 secretion compared to control,"[5]; 300 nM LY450139, 24 h, SH-SY5Y APPwt",80%
same,fold less potent at inhibiting Aβ40 secretion from APPwt cells compared to APPswe cells,[5]; APPwt vs APPswe IC50,~ 5 fold
same,pIC50,"[5]; SH-SY5Y APPwt, inhibitory phase at > 30 nM, approximate",~7.05
same,Aβ40 production 2 - 6 hours after washout,"[5]; LY450139 pre-treated vs control cells, data not shown",did not differ
same,Aβ40 levels increase with 3 nM LY450139 in second 24 h,"[5]; after 300 nM LY450139 for first 24 h, compared to cells given fresh medium in second 24 h, SH-SY5Y APPwt",60%
same,Aβ40 secretion during 24 h after washout,"[5]; pre-treated 300 nM LY450139 24 h, then fresh medium 24 h, SH-SY5Y APPwt",did not differ from control cells
same,cognitive symptoms versus placebo,[6],fared worse than placebo-treated controls
same,effect on secreted Aβ42 levels,[7],not affected
CCC[C@H](N[C@H]1CCc2cc(F)cc(F)c2C1)C(=O)Nc1cn(C(C)(C)CNCC(C)(C)C)cn1 [PF-3084014],Aβ rebound/rise attribute,[8],lack this attribute
"CCc1cn2c3c(cc(C(=O)N[C@@H](Cc4ccccc4)[C@H](O)CNC4CC4)cc13)N(C)S(=O)(=O)CC2 [BACE inhibitor, N-[(1S,2R)-1-Benzyl-3-(cyclopropylamino)-2-hydroxypropyl]-7-ethyl-1-methyl-3,4-dihydro-1H-[1,2, 5]thiadiazepino[3,4,5-hi-]indole-9-carboxamide 2,2-Dioxide]",pIC50,"[1]; BACE inhibitor alone, SH-SY5Y APPswe",7.74
same,pIC50,"[5]; BACE inhibitor alone, SH-SY5Y APPwt",8.15
same,concentration required to abolish the LY450139-evoked Aβ40 rise completely,[5]; SH-SY5Y APPwt,30 nM
